Data as given in ChEMBL document CHEMBL1201862, “PubChem BioAssay data set” (2004).
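Dose response: 5 concentrations. Exposure: 48 h. Format: 96-well plates. Endpoint: linear interpolation; highest concentration if not reached. Abbreviation: GI50, concentration required for 50% inhibition of growth.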 Activity calls are given as the source filed them. Rule as the data show it: active = GI50 up to about 1.1 µM and inactive = higher.

What was measured:
Assay in all cases: DTP human tumour cell line panel, 48 h
[1] = test system: SNB-75
[2] = test system: SR
[3] = test system: RPMI-8226
[4] = test system: OVCAR-5
[5] = test system: HCC 2998
[6] = test system: SK-OV-3
[7] = test system: COLO 205
[8] = test system: LXFL 529
[9] = test system: DLD-1
[10] = test system: HL-60
[11] = test system: Malme-3M
[12] = test system: MOLT-4
[13] = test system: HOP-92
[14] = test system: NCI-H226
[15] = test system: SF-268
[16] = test system: SK-MEL-5
[17] = test system: SF-539
[18] = test system: M19-MEL
[19] = test system: OVCAR-8
[20] = test system: SK-MEL-2
[21] = test system: NCI-H23
[22] = test system: HT-29
[23] = test system: HCT-116
[24] = test system: UACC-62
[25] = test system: A549
[26] = test system: ACHN
[27] = test system: SK-MEL-28
[28] = test system: NCI-H460
[29] = test system: U-251
[30] = test system: HOP-62
[31] = test system: KM12
[32] = test system: SNB-19
[33] = test system: CCRF-CEM
[34] = test system: OVCAR-3
[35] = test system: IGROV-1
[36] = test system: SW-620
[37] = test system: UO-31
[38] = test system: NCI-H522
[39] = test system: SF-295
[40] = test system: UACC-257
[41] = test system: TK-10
[42] = test system: K562
[43] = test system: A498
[44] = test system: DMS-273
[45] = test system: 786-0
[46] = test system: SNB-78
[47] = test system: SN12C
[48] = test system: RXF 393
[49] = test system: KM-20L2
[50] = test system: CAKI-1
[51] = test system: HCT-15
[52] = test system: EKVX
[53] = test system: MDA-MB-231
[54] = test system: MDA-MB-435
[55] = test system: PC-3
[56] = test system: MCF7
[57] = test system: M14
[58] = test system: DU-145
[59] = test system: T47D
[60] = test system: MDA-N
[61] = test system: OVCAR-4
[62] = test system: NCI/ADR-RES
[63] = test system: BT-549
[64] = test system: Hs-578T
[65] = test system: LOX IMVI
[66] = test system: DMS-114

## CC(=O)Nc1ccc(C(=O)NN2C(=O)C(Cl)C2c2cccc([N+](=O)[O-])c2)cc1 (stereo not given)
[1]
  GI50: > 100 µM (inactive)
[2]
  GI50: > 100 µM (inactive)
[3]
  GI50: > 100 µM (inactive)
[4]
  GI50: > 100 µM (inactive)
[5]
  GI50: > 100 µM (inactive)
[6]
  GI50: > 100 µM (inactive)
[7]
  GI50: > 100 µM (inactive)
[8]
  GI50: > 100 µM (inactive)
[9]
  GI50: > 100 µM (inactive)
[10]
  GI50: > 100 µM (inactive)
[11]
  GI50: > 100 µM (inactive)
[12]
  GI50: > 100 µM (inactive)
[13]
  GI50: > 100 µM (inactive)
[14]
  GI50: > 100 µM (inactive)
[15]
  GI50: > 100 µM (inactive)
[16]
  GI50: > 100 µM (inactive)
[17]
  GI50: > 100 µM (inactive)
[18]
  GI50: > 100 µM (inactive)
[19]
  GI50: > 100 µM (inactive)
[20]
  GI50: > 100 µM (inactive)
[21]
  GI50: > 100 µM (inactive)
[22]
  GI50: > 100 µM (inactive)
[23]
  GI50: > 100 µM (inactive)
[24]
  GI50: > 100 µM (inactive)
[25]
  GI50: > 100 µM (inactive)
[26]
  GI50: > 100 µM (inactive)
[27]
  GI50: > 100 µM (inactive)
[28]
  GI50: > 100 µM (inactive)
[29]
  GI50: > 100 µM (inactive)
[30]
  GI50: > 100 µM (inactive)
[31]
  GI50: > 100 µM (inactive)
[32]
  GI50: > 100 µM (inactive)
[33]
  GI50: > 100 µM (inactive)
[34]
  GI50: > 100 µM (inactive)
[35]
  GI50: > 100 µM (inactive)
[36]
  GI50: > 100 µM (inactive)
[37]
  GI50: > 100 µM (inactive)
[38]
  GI50: > 100 µM (inactive)
[39]
  GI50: > 100 µM (inactive)
[40]
  GI50: > 100 µM (inactive)
[41]
  GI50: > 100 µM (inactive)
[42]
  GI50: > 100 µM (inactive)

## O=C(O)c1nc(-c2ccc(Cl)c(Cl)c2)nc2ccc(Cl)cc12
[1]
  GI50: 13.6 µM (inactive)
[2]
  GI50: 64.4 µM (inactive)
[43]
  GI50: > 100 µM (inactive)
[3]
  GI50: > 100 µM (inactive)
[44]
  GI50: 44.7 µM (inactive)
[4]
  GI50: > 100 µM (inactive)
[5]
  GI50: > 100 µM (inactive)
[6]
  GI50: 17.8 µM (inactive)
[7]
  GI50: > 100 µM (inactive)
[8]
  GI50: > 100 µM (inactive)
[9]
  GI50: > 100 µM (inactive)
[45]
  GI50: 48.4 µM (inactive)
[10]
  GI50: 16.6 µM (inactive)
[11]
  GI50: > 100 µM (inactive)
[12]
  GI50: 40.8 µM (inactive)
[46]
  GI50: 27.9 µM (inactive)
[15]
  GI50: 63 µM (inactive)
[16]
  GI50: > 100 µM (inactive)
[17]
  GI50: > 100 µM (inactive)
[18]
  GI50: > 100 µM (inactive)
[47]
  GI50: > 100 µM (inactive)
[19]
  GI50: 70.6 µM (inactive)
[20]
  GI50: 78 µM (inactive)
[21]
  GI50: 38.3 µM (inactive)
[22]
  GI50: > 100 µM (inactive)
[23]
  GI50: 66.7 µM (inactive)
[24]
  GI50: > 100 µM (inactive)
[25]
  GI50: > 100 µM (inactive)
[26]
  GI50: > 100 µM (inactive)
[27]
  GI50: > 100 µM (inactive)
[28]
  GI50: > 100 µM (inactive)
[29]
  GI50: 61.5 µM (inactive)
[30]
  GI50: 38.2 µM (inactive)
[31]
  GI50: > 100 µM (inactive)
[48]
  GI50: 28.3 µM (inactive)
[49]
  GI50: > 100 µM (inactive)
[32]
  GI50: 51.9 µM (inactive)
[33]
  GI50: > 10 µM (inactive)
[34]
  GI50: 51.9 µM (inactive)
[35]
  GI50: 51.5 µM (inactive)
[50]
  GI50: 73.1 µM (inactive)
[36]
  GI50: > 100 µM (inactive)
[37]
  GI50: > 100 µM (inactive)
[51]
  GI50: > 100 µM
[39]
  GI50: 45.9 µM (inactive)
[40]
  GI50: > 100 µM (inactive)
[41]
  GI50: 44.8 µM (inactive)
[52]
  GI50: > 100 µM (inactive)
[42]
  GI50: > 10 µM (inactive)

## CN(C)Cc1ccc(C(C)(C)C)cc1-c1cc(C(C)(C)C)ccc1CN(C)C
[53]
  GI50: 70.5 µM (inactive)
[54]
  GI50: 55.6 µM (inactive)
[1]
  GI50: 88.1 µM (inactive)
[2]
  GI50: 39 µM (inactive)
[43]
  GI50: 28.2 µM (inactive)
[3]
  GI50: 26.9 µM (inactive)
[4]
  GI50: > 100 µM (inactive)
[5]
  GI50: 16 µM (inactive)
[6]
  GI50: > 100 µM (inactive)
[7]
  GI50: 19.4 µM (inactive)
[55]
  GI50: 27.7 µM (inactive)
[45]
  GI50: 70.5 µM (inactive)
[10]
  GI50: 86.9 µM (inactive)
[11]
  GI50: 31.3 µM (inactive)
[12]
  GI50: 40.2 µM (inactive)
[56]
  GI50: 37.6 µM (inactive)
[57]
  GI50: 20.8 µM (inactive)
[13]
  GI50: > 100 µM (inactive)
[14]
  GI50: > 100 µM (inactive)
[58]
  GI50: > 100 µM (inactive)
[15]
  GI50: > 100 µM (inactive)
[16]
  GI50: 32.4 µM (inactive)
[17]
  GI50: > 100 µM (inactive)
[47]
  GI50: 22.2 µM (inactive)
[19]
  GI50: > 100 µM (inactive)
[20]
  GI50: 76.9 µM (inactive)
[21]
  GI50: 77.4 µM (inactive)
[22]
  GI50: 33 µM (inactive)
[23]
  GI50: 37.7 µM (inactive)
[24]
  GI50: > 100 µM (inactive)
[25]
  GI50: 93.5 µM (inactive)
[59]
  GI50: 48.2 µM (inactive)
[26]
  GI50: > 100 µM (inactive)
[27]
  GI50: 33.3 µM (inactive)
[28]
  GI50: 51.1 µM (inactive)
[60]
  GI50: 48.5 µM (inactive)
[29]
  GI50: 42.7 µM (inactive)
[61]
  GI50: 53.7 µM (inactive)
[30]
  GI50: > 100 µM (inactive)
[31]
  GI50: 34.3 µM (inactive)
[48]
  GI50: 97.1 µM (inactive)
[32]
  GI50: > 100 µM (inactive)
[33]
  GI50: 42.7 µM (inactive)
[34]
  GI50: 21.8 µM (inactive)
[62]
  GI50: > 100 µM (inactive)
[63]
  GI50: > 100 µM (inactive)
[35]
  GI50: > 100 µM (inactive)
[64]
  GI50: > 100 µM (inactive)
[50]
  GI50: > 100 µM (inactive)
[36]
  GI50: > 100 µM (inactive)
[37]
  GI50: 42.7 µM (inactive)
[38]
  GI50: 50.5 µM (inactive)
[51]
  GI50: 72.3 µM
[39]
  GI50: 33.5 µM (inactive)
[40]
  GI50: 21.6 µM (inactive)
[41]
  GI50: > 100 µM (inactive)
[52]
  GI50: 39.2 µM (inactive)
[42]
  GI50: 27.8 µM (inactive)
[65]
  GI50: 83.6 µM (inactive)

## CC1=C(C2=C(C)C(=O)c3c(c(C=O)c(O)c(O)c3C(C)C)C2=O)C(=O)c2c(C=O)c(O)c(O)c(C(C)C)c2C1=O [GOSSYPOLONE]
[1]
  GI50: 6.59 µM (inactive)
[2]
  GI50: 3.97 µM (inactive)
[3]
  GI50: 2.29 µM (inactive)
[4]
  GI50: 1.89 µM (inactive)
[6]
  GI50: 3.21 µM (inactive)
[7]
  GI50: 3.18 µM (inactive)
[8]
  GI50: 3.4 µM (inactive)
[10]
  GI50: 2.99 µM (inactive)
[11]
  GI50: 4.33 µM (inactive)
[12]
  GI50: 2.74 µM (inactive)
[46]
  GI50: 2.2 µM (inactive)
[57]
  GI50: 1.96 µM (inactive)
[13]
  GI50: 2.53 µM (inactive)
[15]
  GI50: 2.72 µM (inactive)
[17]
  GI50: 2.69 µM (inactive)
[18]
  GI50: 4.32 µM (inactive)
[20]
  GI50: 1.75 µM (inactive)
[21]
  GI50: 3.72 µM (inactive)
[22]
  GI50: 2.19 µM (inactive)
[23]
  GI50: 2.36 µM (inactive)
[24]
  GI50: 2.77 µM (inactive)
[26]
  GI50: 2.96 µM (inactive)
[27]
  GI50: 4.8 µM (inactive)
[28]
  GI50: 2.98 µM (inactive)
[29]
  GI50: 2.64 µM (inactive)
[66]
  GI50: 2.23 µM (inactive)
[61]
  GI50: 3.05 µM (inactive)
[30]
  GI50: 3.64 µM (inactive)
[31]
  GI50: 2.24 µM (inactive)
[48]
  GI50: 2.34 µM (inactive)
[49]
  GI50: 2.21 µM (inactive)
[32]
  GI50: 4.44 µM (inactive)
[33]
  GI50: 1.82 µM (inactive)
[34]
  GI50: 2.31 µM (inactive)
[35]
  GI50: 2.69 µM (inactive)
[37]
  GI50: 2.17 µM (inactive)
[38]
  GI50: 4.67 µM (inactive)
[39]
  GI50: 1.93 µM (inactive)
[40]
  GI50: 3.99 µM (inactive)
[42]
  GI50: 2.95 µM (inactive)
